Source: US20010034357A1, “Substituted pyridine compounds useful for controlling chemical synaptic transmission” (priority 2000, published 2001)
Where two headings read alike, the source gives them in different places.

Legend:
[1] = tested on: mouse hot plate paradigm; experiment: mouse hot plate paradigm (analgesia, latency until tenth jump); format: in vivo; details: mice, intraperitoneal, dosed 30 minutes prior to testing, hot plate 55° C.; for Analgesic MED (μmol/kg): footnote symbols for no effect; for Analgesic MED: minimally effective dose among the doses tested
Description: An in vivo protocol was utilized to determine the effectiveness of nicotinic acetylcholine receptor ligands as analgesic agents in the mouse hot plate paradigm.
Separate groups of mice, (n=8/group) were utilized for each dose group. All drugs were administered by the intraperitoneal route of administration. Test drugs were dissolved in water to make a 6.2 mM stock solution. Animals were dosed with this solution (10 mL/kg body weight) for a 62 micromol/kg dose. Lower doses were administered similarly, following serial dilution of the stock solution in half-log increments. Animals were dosed 30 minutes prior to testing in the hot plate. The hot-plate utilized was an automated analgesia monitor (Model #AHP16AN, Omnitech Electronics, Inc. of Columbus, Ohio). The temperature of the hot plate was maintained at 55° C. and a cut-off time of 180 seconds was utilized. A control was run against each compound tested. Latency until the tenth jump was recorded as the dependent measure. An increase in the tenth jump latency relative to the control was considered a significant effect.

[2] = target: T1, neuronal nicotinic acetylcholine receptors (Rattus norvegicus, UniProt P09483+P12390); experiment: [3H]-cytisine binding to neuronal nicotinic acetylcholine receptors, crude synaptic membranes from whole rat brain
T1 construct: crude synaptic membrane preparations from whole rat brain; from tissue; host or cells: whole rat brain, crude synaptic membranes
Description: The in vitro protocols for determination of nicotinic acetylcholine channel receptor binding potencies of ligands was determined as follows.
Binding of [^3H]-cytisine ([^3H]-CYT) to neuronal nicotinic acetylcholine receptors was accomplished using crude synaptic membrane preparations from whole rat brain (Pabreza et al., Molecular Pharmacol., 1990, 39:9). Washed membranes were stored at −80° C. prior to use. Frozen aliquots were slowly thawed and resuspended in 20 volumes of buffer (containing: 120 mM NaCl, 5 mM KCl, 2 mM MgCl2, 2 mM CaCl2 and 50 mM Tris-Cl, pH 7.4 @4° C.). After centrifuging at 20,000×g for 15 minutes, the pellets were resuspended in 30 volumes of buffer.
The test compounds were dissolved in water to make 10 mM stock solutions. Each solution was then diluted (1:100) with buffer (as above) and further taken through seven serial log dilutions to produce test solutions from 10^−5 to 10^−11 M.
Homogenate (containing 125-150 µg protein) was added to triplicate tubes containing the range of concentrations of test compound described above and [^3H]-CYT (1.25 nM) in a final volume of 500 μL. Samples were incubated for 60 minutes at 4° C., then rapidly filtered through Whatman GF/B filters presoaked in 0.5% polyethyleneimine using 3×4 mL of ice-cold buffer. The filters are counted in 4 mL of Ecolume® (ICN). Nonspecific binding was determined in the presence of 10 μM (−)-nicotine and values were expressed as a percentage of total binding. IC50 values were determined with a four-parameter non-linear regression and IC50 values were converted to K1 values using the Cheng and Prusoff correction (K1=IC50/(1+[ligand]/Kd of ligand).
Each Example number corresponds to the synthetic Examples described above. […] The lower the Ki value, the more affinity for neuronal nicotinic acetylcholine receptors.

[3] = [3H]-CYT 1.25 nM, whole rat brain membranes, 60 minutes at 4° C., Cheng and Prusoff correction, Table 1, read-out: Ki

T1 sequence (P09483 31-630): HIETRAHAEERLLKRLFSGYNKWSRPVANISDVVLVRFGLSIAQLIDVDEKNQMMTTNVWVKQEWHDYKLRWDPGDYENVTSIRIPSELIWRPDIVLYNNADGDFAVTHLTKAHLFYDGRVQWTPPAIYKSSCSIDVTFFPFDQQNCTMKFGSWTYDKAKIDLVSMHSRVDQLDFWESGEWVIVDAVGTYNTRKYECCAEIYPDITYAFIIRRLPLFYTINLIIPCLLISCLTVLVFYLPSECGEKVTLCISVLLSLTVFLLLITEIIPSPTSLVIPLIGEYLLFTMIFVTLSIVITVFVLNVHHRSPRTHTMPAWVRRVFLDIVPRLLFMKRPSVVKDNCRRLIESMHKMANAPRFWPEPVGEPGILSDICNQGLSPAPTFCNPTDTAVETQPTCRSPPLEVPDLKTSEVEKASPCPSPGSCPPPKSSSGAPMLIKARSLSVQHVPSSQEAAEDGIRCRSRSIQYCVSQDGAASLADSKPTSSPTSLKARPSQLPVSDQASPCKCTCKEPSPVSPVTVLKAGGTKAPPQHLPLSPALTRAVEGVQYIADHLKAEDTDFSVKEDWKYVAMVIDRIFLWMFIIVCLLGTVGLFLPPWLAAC
T1 sequence (P12390 25-500): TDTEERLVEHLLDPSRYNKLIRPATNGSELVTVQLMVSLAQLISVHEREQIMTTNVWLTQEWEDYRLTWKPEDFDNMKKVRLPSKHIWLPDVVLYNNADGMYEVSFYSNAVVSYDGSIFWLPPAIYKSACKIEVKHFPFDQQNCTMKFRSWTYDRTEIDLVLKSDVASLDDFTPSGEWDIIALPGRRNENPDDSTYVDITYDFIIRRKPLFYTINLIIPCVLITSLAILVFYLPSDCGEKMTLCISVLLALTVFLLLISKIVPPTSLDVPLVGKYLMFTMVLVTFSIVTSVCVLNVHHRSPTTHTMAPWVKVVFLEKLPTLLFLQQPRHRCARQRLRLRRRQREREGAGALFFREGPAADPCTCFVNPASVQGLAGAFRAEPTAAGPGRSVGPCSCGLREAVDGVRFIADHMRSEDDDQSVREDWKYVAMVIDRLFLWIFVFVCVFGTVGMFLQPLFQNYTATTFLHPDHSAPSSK

| Molecule | Analgesic MED (μmol/kg) [1] | Ki [2, 3] [nM] | melting point [°C] | Analgesic MED [1] [µmol/kg] | Ki ([2]; Ki (nM)) [nM] |
| --- | --- | --- | --- | --- | --- |
| CN(C)[C@H](COc1cnc(Cl)c(C=Cc2ccncc2)c1)Cc1ccccc1 [Example 24, 5-[(S)-2-N-dimethyl-amino-3-phenyl-1-propyloxy]-2-chloro-3-(4-vinylpyridinyl) pyridine di-p-toluenesulfonic acid] | * (no effect at 62) | 4.63 | 81 to 83 |  |  |
| CC[C@H](N)COc1ccc(Cl)nc1.Cc1ccc(S(=O)(=O)O)cc1 [Example 15, 5-[(S)-2-amino-1-butyloxy]-2-chloro pyridine p-toluenesulfonic acid] | * (no effect at 62) | 14.7 |  |  |  |
| C[C@H](N)COc1ccc(F)nc1.Cc1ccc(S(=O)(=O)O)cc1 [Example 4, 5-[(S)-2-amino-1-propyloxy]-2-fluoro pyridine p-toluenesulfonic acid] |  | 8.69 |  | 6.2 |  |
| C[C@@H](COc1ccc(F)nc1)N(C)C.Cc1ccc(S(=O)(=O)O)cc1 [Example 5, 5-[(S)-2-dimethylamino-1-propyloxy]-2-fluoro pyridine p-toluenesulfonic acid] | * (no effect at 62) | 100 |  |  |  |
| Cc1cc(OC[C@H](C)N(C)C)cnc1Cl.Cc1ccc(S(=O)(=O)O)cc1 [Example 11, 5-[(S)-2-dimethylamino-1-propyloxy]-2-chloro-3-methyl pyridine p-toluenesulfonic acid] | * (no effect at 62) | 9.6 |  |  |  |
| CC[C@@H](COc1cnc(Cl)c(C=Cc2ccncc2)c1)N(C)C [Example 20, 5-[(S)-2-N-dimethylamino-1-butyloxy]-2-chloro-3-(4-vinylpyridinyl) pyridine di-p-toluenesulfonic acid] |  | 3.61 | 73 to 75 |  |  |
| C[C@H](N)COc1ccc(Cl)nc1.Cc1ccc(S(=O)(=O)O)cc1 [Example 1, 5-[(S)-2-amino-1-propyloxy]-2-chloro pyridine p-toluenesulfonic acid] |  | 4.51 |  | 62 |  |
| C[C@@H](COc1cnc(Cl)c(Br)c1)N(C)C.Cc1ccc(S(=O)(=O)O)cc1 [Example 8, 5-[(S)-2-dimethylamino-1-propyloxy]-2-chloro-3-bromo pyridine p-toluenesulfonic acid] |  | 30.8 |  | 62 |  |
| CN[C@H](C)COc1ccc(Cl)nc1.Cc1ccc(S(=O)(=O)O)cc1 [Example 28, 5-[(R)-2-methylamino-1-propyloxy]-2-chloropyridine p-toluenesulfonic acid] |  | 5.87 |  | 62 |  |
| CC(N)COc1ccc(Cl)nc1 (stereo in doubt) [Example 26, 5-[(S)-2-amino-1-propyloxy]-2-chloro pyridine p-toluenesulfonic acid] |  |  |  | 62 | 5.34 |
| CN[C@H](C)COc1ccc(F)nc1.Cc1ccc(S(=O)(=O)O)cc1 [Example 31, 5-[(R)-2-methylamino-1-propyloxy]-2-fluoro pyridine p-toluenesulfonic acid] |  | 11.4 |  | 62 |  |
| CC(COc1cnc(Cl)c(C=Cc2ccncc2)c1)N(C)C (single isomer, unassigned) [Example 39] | * (no effect at 62) | 0.103 | 81 to 83 |  |  |
| CC(COc1cnc(Cl)c(C=Cc2ccncc2)c1)N(C)C (single isomer, unassigned) [Example 14] | * (no effect at 62) | 0.367 | 79 to 81 |  |  |
| CN[C@@H](C)COc1cnc(Cl)c(C)c1.Cc1ccc(S(=O)(=O)O)cc1 [Example 12, 5-[(S)-2-methylamino-1-propyloxy]-2-chloro-3-methyl pyridine p-toluenesulfonic acid] |  | 5.47 |  | 62 |  |
| 5-[(S)-2-amino-3-phenyl-1-propyloxy]-2-chloro-3-(4-vinylpyridinyl) pyridine di-p-toluenesulfonic acid [Example 23] | * (no effect at 62) | 9.89 |  |  |  |
